Assays:
G2019S LRRK2 = target: T1, G2019S LRRK2 (Homo sapiens, UniProt Q5S007, G2019S); test: LRRK2 degradation HiBit assay, G2019S LRRK2 tagged with a HiBit tag expressed in HEK293 cells; assay type: cell-based; conditions: 24 hours compound incubation; for Dmax: HEK293, HEK293 cells
T1 construct: expressed in transfected cells; host or cells: HEK293 (ATCC CRL-1573)
Description: (§1) The assay measures the degradation of wildtype and G2019S LRRK2 tagged with a HiBit tag on the C-terminus of the protein that was expressed from a mammalian expression vector, driven by the ubiquitin promoter in HEK293 cells. Each compound dose-response was repeated on three separate days, on three separate plates each day.
(§2) Plasmid Preparation. Transfection mixes were assembled as follows and incubated for 30 minutes at room temperature. In a 15 mL tube, 5.25 mL Opti-MEM (no additions) was mixed with 17 μL Firefly Luciferase plasmid at 1 μg/μL and 158 μL WT plasmid DNA at 1 μg/μL (175 μg total DNA) were mixed by flicking. In a new 15 mL tube, 5.25 mL OptiMEM was mixed with 17 μL Firefly Luciferase plasmid at 1 μg/μL and 158 μL G2019S plasmid DNA at 1 μg/μL (175 μg total DNA) were mixed by flicking. X-tremeGene HP was mixed thoroughly using a vortex. Next, 175 μL was added to each tube and flicked to mix. Both tubes were left to incubate for 30 minutes at room temperature.
While the transfection mixes were incubating, HEK293 cells acquired from ATCC (ATCC CRL-1573) were harvested with trypsin. Once cells are detached, the cells were resuspended in 12 mL OptiMEM+5% FBS and transferred to a 50 mL tube. The cells were mixed well and counted. Using OptiMEM+5% FBS, the cells were diluted in two 250 mL conical tubes at 0.71×10^6 cells/mL in 70 mL. One tube was labeled “WT” and the other “G2019S”. The WT and G2019S transfection mixes were added dropwise to the corresponding 250 mL tubes. The tubes were mixed first by pipetting then by swirling. The tubes were incubated at room temperature for at least 5 minutes.
(§3) Each tube was swirled before dispensing and after every three plates. Seventy microliters of cells were dispensed with WT or G2019S DNA to seven plates each. Three plates of each were tested with compound plate one (preparation described below) and three plates of each were tested with compound plate two (preparation described below). The first plate from each set served as a “prime” plate and was not used to test compounds. Each plate was incubated in the hood for 10 minutes before placing in the 37° C. incubator for 24 hours.
(§4) Preparation of Compound and Assay Plates. Two compound plates were made using 96 well polypropylene plates. Compounds were made up at 10 mM and were diluted to 1 mM in 30 μL. Each dose response curve included a well of DMSO, as a negative control and for normalization, and a well of 0.5 μM of Exemplary Compound 4 as a positive control. In addition to seven test compounds, each plate also included a dose response of Exemplary Compound 4. The compound plates were spun down along at 1200 rpm for 2 minutes.
(§5) The two compound plates were then mixed and 2 μL was diluted in intermediate plates having 248 μL of Opti-Mem in each well. Next, 10 μL diluted compounds from the intermediate plates were added to each test plate (three WT and three G2019S plates per compound plate for a total of 12 assay plates). The plates were incubated for 24 hours at 37° C.
(§6) All assay plates and all Nano-Glo Dual-Luciferase Reporter Assay System components (except for the DLR substrate) were equilibrated to room temperature. Next, the luciferase buffer was mixed with the lyophilized amber bottle until fully dissolved, and 75 μL of the luciferase mixture was added to each well of each assay plate. The assay plates were incubated for 10 minutes at room temperature with shaking for at least 5 minutes, and then read on a plate reader.
(§7) Developing Plates and Analyzing Data. One milliliter of DLR substrate and 1 mL LgBiT Protein were added to the Stop and Glo buffer, and 75 μL of the mixture was added to each well of each plate. Optically clear seals were added to each plate and each plate was incubated for 20 minutes with shaking for at least 10 minutes, and then read on a plate reader. […]

wildtype LRRK2 = target: T2, wildtype LRRK2 (Homo sapiens, UniProt Q5S007); test: LRRK2 degradation HiBit assay, wildtype LRRK2 tagged with a HiBit tag in HEK293 cells; assay type: cell-based; conditions: 24 hours compound incubation; for DC50: read-out: *WT DC50; for Dmax: read-out: ** WT Dmax (%)
T2 construct: endogenous in cells; host or cells: HEK293 with HiBit knocked in at the 3' end of the endogenous LRRK2 gene, stably expressing firefly luciferase
Description: as §1, with “repeated on two separate days,” for “repeated on three separate days,”
as §2
While the transfection mixes were incubating, HEK293 cells (acquired from ATCC; ATCC CRL-1573) were harvested with trypsin. Once cells are detached, the cells were resuspended in 12 mL OptiMEM+5% FBS and transferred to a 50 mL tube. The cells were mixed well and counted. Using OptiMEM+5% FBS, the cells were diluted in two 250 mL conical tubes at 0.71×10^6 cells/mL in 70 mL. One tube was labeled “WT” and the other “G2019S”. The WT and G2019S transfection mixes were added dropwise to the corresponding 250 mL tubes. The tubes were mixed first by pipetting then by swirling. The tubes were incubated at room temperature for at least 5 minutes.
as §3, §4, §5, §6, §7

T2 sequence (Q5S007 whole entry): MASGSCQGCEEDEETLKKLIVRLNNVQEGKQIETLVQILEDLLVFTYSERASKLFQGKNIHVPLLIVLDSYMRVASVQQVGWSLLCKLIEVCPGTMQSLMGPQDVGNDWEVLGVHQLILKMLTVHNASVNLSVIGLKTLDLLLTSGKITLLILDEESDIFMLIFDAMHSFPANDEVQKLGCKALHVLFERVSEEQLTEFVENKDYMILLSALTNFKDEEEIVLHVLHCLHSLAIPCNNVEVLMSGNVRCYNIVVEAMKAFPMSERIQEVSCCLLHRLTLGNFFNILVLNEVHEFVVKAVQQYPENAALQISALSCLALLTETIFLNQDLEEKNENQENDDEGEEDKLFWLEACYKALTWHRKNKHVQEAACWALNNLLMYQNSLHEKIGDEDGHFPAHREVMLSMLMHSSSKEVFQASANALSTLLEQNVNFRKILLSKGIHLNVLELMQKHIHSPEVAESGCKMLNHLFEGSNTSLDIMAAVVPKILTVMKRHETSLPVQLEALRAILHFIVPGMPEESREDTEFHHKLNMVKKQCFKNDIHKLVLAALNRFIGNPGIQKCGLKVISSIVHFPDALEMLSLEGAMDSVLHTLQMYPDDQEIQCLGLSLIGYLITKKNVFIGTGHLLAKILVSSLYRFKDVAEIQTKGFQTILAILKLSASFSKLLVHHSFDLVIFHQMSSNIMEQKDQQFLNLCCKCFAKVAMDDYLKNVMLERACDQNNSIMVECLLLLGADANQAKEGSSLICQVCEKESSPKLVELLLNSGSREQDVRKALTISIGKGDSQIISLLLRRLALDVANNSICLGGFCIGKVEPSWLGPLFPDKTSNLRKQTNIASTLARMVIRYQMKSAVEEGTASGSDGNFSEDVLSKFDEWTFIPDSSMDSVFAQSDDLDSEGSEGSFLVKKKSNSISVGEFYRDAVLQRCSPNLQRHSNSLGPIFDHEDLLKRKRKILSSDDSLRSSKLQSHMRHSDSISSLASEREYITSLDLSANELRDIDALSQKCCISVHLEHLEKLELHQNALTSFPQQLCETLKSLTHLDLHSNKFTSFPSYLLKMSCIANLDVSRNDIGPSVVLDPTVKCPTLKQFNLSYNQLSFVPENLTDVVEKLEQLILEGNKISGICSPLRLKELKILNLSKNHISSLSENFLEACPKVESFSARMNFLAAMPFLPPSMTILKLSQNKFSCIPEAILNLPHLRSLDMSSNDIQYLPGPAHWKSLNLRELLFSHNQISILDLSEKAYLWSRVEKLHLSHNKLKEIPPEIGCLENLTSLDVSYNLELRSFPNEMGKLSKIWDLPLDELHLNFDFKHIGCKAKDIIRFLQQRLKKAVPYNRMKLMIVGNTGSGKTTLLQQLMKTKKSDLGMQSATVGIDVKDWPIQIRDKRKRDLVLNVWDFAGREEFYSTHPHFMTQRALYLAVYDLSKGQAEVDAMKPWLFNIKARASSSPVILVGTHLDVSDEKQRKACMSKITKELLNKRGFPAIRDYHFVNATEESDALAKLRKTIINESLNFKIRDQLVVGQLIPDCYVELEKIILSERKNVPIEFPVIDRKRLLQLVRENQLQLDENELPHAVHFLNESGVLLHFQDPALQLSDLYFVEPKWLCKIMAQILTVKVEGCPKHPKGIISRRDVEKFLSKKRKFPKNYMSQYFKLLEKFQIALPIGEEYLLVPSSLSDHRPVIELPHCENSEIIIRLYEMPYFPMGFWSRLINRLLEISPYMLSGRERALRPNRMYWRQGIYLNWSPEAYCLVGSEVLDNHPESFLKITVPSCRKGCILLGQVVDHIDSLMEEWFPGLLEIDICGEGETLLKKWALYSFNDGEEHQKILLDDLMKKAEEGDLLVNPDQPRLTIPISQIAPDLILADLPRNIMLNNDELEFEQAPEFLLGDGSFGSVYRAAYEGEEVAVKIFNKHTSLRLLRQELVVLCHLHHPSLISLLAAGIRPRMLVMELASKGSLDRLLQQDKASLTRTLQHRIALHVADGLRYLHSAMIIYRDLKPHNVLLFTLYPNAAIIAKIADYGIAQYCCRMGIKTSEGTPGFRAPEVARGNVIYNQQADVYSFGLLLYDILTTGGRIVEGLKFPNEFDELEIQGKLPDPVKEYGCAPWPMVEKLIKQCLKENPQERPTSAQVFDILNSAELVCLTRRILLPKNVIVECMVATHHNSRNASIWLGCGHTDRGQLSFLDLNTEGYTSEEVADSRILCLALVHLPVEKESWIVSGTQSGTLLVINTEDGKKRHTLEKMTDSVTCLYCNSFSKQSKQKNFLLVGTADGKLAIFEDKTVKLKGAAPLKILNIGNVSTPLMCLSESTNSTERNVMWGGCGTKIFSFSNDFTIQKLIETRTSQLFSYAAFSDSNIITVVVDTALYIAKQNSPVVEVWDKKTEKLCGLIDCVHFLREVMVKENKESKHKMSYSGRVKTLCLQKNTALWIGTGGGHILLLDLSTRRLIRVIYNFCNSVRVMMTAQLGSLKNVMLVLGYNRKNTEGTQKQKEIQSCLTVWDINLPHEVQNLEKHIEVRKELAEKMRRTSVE
T1 sequence (Q5S007 whole entry G2019S): as the sequence (Q5S007 whole entry) above, with G2019S counted along it

SMILES | Dmax (G2019S LRRK2) [%] | DC50 (G2019S LRRK2; HEK293 cells) [nM] | DC50 (wildtype LRRK2) [nM] | Dmax (wildtype LRRK2) [%] | **G2019S Dmax (%) (G2019S LRRK2; HEK293 cells)
CC1=C(C(=O)Nc2ccc3[nH]nc(-c4ccnc(N5CCN(CCN6CCN(CC7CCN(c8ccc9c(c8)C(=O)N(C8CCC(=O)NC8=O)C9=O)CC7)CC6)CC5)c4)c3c2)[C@@H](C)n2nnnc2N1C (stereo partly drawn) [compound 21, (7R)-N-(3-(2-(4-(2-(4-((1-(2-(2,6-dioxopiperidin-3-yl)-1,3-dioxoisoindolin-5-yl)piperidin-4-yl)methyl)piperazin-1-yl)ethyl)piperazin-1-yl)pyridin-4-yl)-1H-indazol-5-y1)-4,5,7-trimethyl-4,7-dihydrotetrazolo[1,5-a]pyrimidine-6-carboxamide] | 50 to 70 | ≥ 100 | ≥ 100 | – | –
CC1=C(C(=O)Nc2ccc3[nH]nc(-c4ccnc(N5CCN(CC(F)(F)C6CCN(CC7CCN(c8ccc9c(c8)C(=O)N(C8CCC(=O)NC8=O)C9=O)CC7)CC6)CC5)c4)c3c2)[C@@H](C)n2nnnc2N1C (stereo partly drawn) [compound 22, (7R)-N-(3-(2-(4-(2-(1-((1-(2-(2,6-dioxopiperidin-3-yl)-1,3-dioxoisoindolin-5-yl)piperidin-4-yl)methyl)piperidin-4-yl)-2,2-difluoroethyl)piperazin-1-yl)pyridin-4-yl)-1H-indazol-5-yl)-4,5,7-trimethyl-4,7-dihydrotetrazolo[1,5-a]pyrimidine-6-carboxamide] | 50 to 70 | < 10 | < 10 | 50 to 70 | –
CC1=C(C(=O)Nc2ccc3[nH]nc(-c4ccnc(N5CCN(CCN6CCC(CC7CCN(c8ccc9c(c8)C(=O)N(C8CCC(=O)NC8=O)C9=O)CC7)CC6)CC5)c4)c3c2)[C@@H](C)n2nnnc2N1C (stereo partly drawn) [compound 23, (7R)-N-(3-(2-(4-(2-(4-((1-(2-(2,6-dioxopiperidin-3-yl)-1,3-dioxoisoindolin-5-yl)piperidin-4-yl)methyl)piperidin-1-yl)ethyl)piperazin-1-yl)pyridin-4-yl)-1H-indazol-5-yl)-4,5,7-trimethyl-4,7-dihydrotetrazolo[1,5-a]pyrimidine-6-carboxamide] | 50 to 70 | 10 to 50 | 50 to 100 | 50 to 70 | –
CC1=C(C(=O)Nc2ccc3[nH]nc(-c4ccnc(N5CCN(C6CN(CC7CCN(c8ccc9c(c8)C(=O)N(C8CCC(=O)NC8=O)C9=O)CC7)C6)CC5)c4)c3c2)[C@@H](C)n2nnnc2N1C (stereo partly drawn) [compound 24, (7R)-N-[3-(2-{4-[1-({1-[2-(2,6-dioxopiperidin-3-yl)-1,3-dioxo-2,3-dihydro-1H-isoindol-5-yl]piperidin-4-yl}methyl)azetidin-3-yl]piperazin-1-yl}pyridin-4-yl)-1H-indazol-5-yl]-4,5,7-trimethyl-4H,7H-[1,2,3,4]tetrazolo[1,5-a]pyrimidine-6-carboxamide] | 50 to 70 | 10 to 50 | 10 to 50 | < 50 | –
CC1=C(C(=O)Nc2ccc3[nH]nc(-c4ccnc(N5CCN(CCN6CCN(CC7CCN(c8ccc9c(c8)C(=O)N(C8CCC(=O)NC8=O)C9=O)CC7)CC6)CC5)c4)c3c2)[C@@H](C)n2nnnc2N1C (stereo partly drawn) [compound 25, (7R)-N-{3-[2-(4-{2-[4-({1-[2-(2,6-dioxopiperidin-3-yl)-1,3-dioxo-2,3-dihydro-1H-isoindol-5-yl]piperidin-4-yl}methyl)piperazin-1-yl]ethyl}piperazin-1-yl)pyridin-4-yl]-1H-indazol-5-yl}-4,5,7-trimethyl-4H,7H-[1,2,3,4]tetrazolo[1,5-a]pyrimidine-6-carboxamide] | – | 10 to 50 | 50 to 100 | ≥ 70 | A (A ≥ 70)
CC1=C(C(=O)Nc2ccc3[nH]nc(-c4ccnc(N5CC6(CN(CC7CCN(c8ccc9c(c8)C(=O)N(C8CCC(=O)NC8=O)C9=O)CC7)C6)C5)c4)c3c2)[C@@H](C)n2nnnc2N1C (stereo partly drawn) [compound 26, (7R)-N-(3-{2-[6-({1-[2-(2,6-dioxopiperidin-3-yl)-1,3-dioxo-2,3-dihydro-1H-isoindol-5-yl]piperidin-4-yl}methyl)-2,6-diazaspiro[3.3]heptan-2-yl]pyridin-4-yl}-1H-indazol-5-yl)-4,5,7-trimethyl-4H,7H-[1,2,3,4]tetrazolo[1,5-a]pyrimidine-6-carboxamide] | ≥ 70 | ≥ 100 | ≥ 100 | – | –
CC1=C(C(=O)Nc2ccc3[nH]nc(-c4ccnc(N5CCN(CCN6CCC(CN7CCN(c8ccc9c(c8)C(=O)N(C8CCC(=O)NC8=O)C9=O)CC7)CC6)CC5)c4)c3c2)[C@H](C)n2nnnc2N1C (stereo partly drawn) [compound 27, (7S)-N-{3-[2-(4-{2-[4-({4-[2-(2,6-dioxopiperidin-3-yl)-1,3-dioxo-2,3-dihydro-1H-isoindol-5-yl]piperazin-1-yl}methyl)piperidin-1-yl]ethyl}piperazin-1-yl)pyridin-4-yl]-1H-indazol-5-yl}-4,5,7-trimethyl-4H,7H-[1,2,3,4]tetrazolo[1,5-a]pyrimidine-6-carboxamide] | 50 to 70 | ≥ 100 | ≥ 100 | – | –
CC1=C(C(=O)Nc2ccc3[nH]nc(-c4ccnc(N5CCN(CCN6CCN(CC7CCN(c8ccc9c(c8)C(=O)N(C8CCC(=O)NC8=O)C9=O)CC7)CC6)[C@@H](C)C5)c4)c3c2)[C@H](C)n2nnnc2N1C (stereo partly drawn) [compound 28, (7S)-N-(3-{2-[(3S)-4-{2-[4-({1-[2-(2,6-dioxopiperidin-3-yl)-1,3-dioxo-2,3-dihydro-1H-isoindol-5-yl]piperidin-4-yl}methyl)piperazin-1-yl]ethyl}-3-methylpiperazin-1-yl]pyridin-4-yl}-1H-indazol-5-yl)-4,5,7-trimethyl-4H,7H-[1,2,3,4]tetrazolo[1,5-a]pyrimidine-6-carboxamide] | 50 to 70 | ≥ 100 | ≥ 100 | – | –
CC1=C(C(=O)Nc2ccc3[nH]nc(-c4ccnc(N5CCN(CC6CCN(CC7CCN(c8ccc9c(c8)C(=O)N(C8CCC(=O)NC8=O)C9=O)CC7)CC6)CC5)c4)c3c2)C(C)(C)n2nnnc2N1C (centres unmarked) [compound 29, N-{3-[2-(4-{[1-({1-[2-(2,6-dioxopiperidin-3-yl)-1,3-dioxo-2,3-dihydro-1H-isoindol-5-yl]piperidin-4-yl}methyl)piperidin-4-yl]methyl}piperazin-1-yl)pyridin-4-yl]-1H-indazol-5-yl}-4,5,7,7-tetramethyl-4H,7H-[1,2,3,4]tetrazolo[1,5-a]pyrimidine-6-carboxamide] | < 50 | 10 to 50 | ≥ 100 | < 50 | –
